Measured values published in patent publication US7465814B2, “Sulfonate compound and fluorescent probe using the same” (priority 2003, dated 2008).

Tests used:
[1] = Fluorescent response to XO-HPX system, 96-well microplate (Table 1); format: biochemical; settings: relative fluorescence intensity, blank = 10, probe 21.3 μM, 10 minutes; for fluorescent response, XO—HPX: XO 13.1 mU/mL, HPX 50 μM, HEPES pH 7.4, 37° C.; for fluorescent response, XO—HPX—SOD: XO-HPX with SOD, 37° C.
Procedure: (§1) Moreover, in other conditions than those of the above-described tests, reactivity of all of the compounds 1a to 1d with H2O2, other various kinds of nucleophilic agents, reducing agents and the like also was tested, respectively. More specifically, fluorescent responses of 1a to 1d with respect to a XO-HPX system, a XO-HPX-SOD system, H2O2, ascorbic acid, 1,4-hydroquinone, propylamine, diethylamine, glucose, esterase, a cytochrome P450 reductase+NADPH system, and a diaphorase+NADH system were measured, respectively. Operational processes thereof will be described below. Firstly, 1a to 1d and the above-described reagents were dissolved in HEPES of 10 mM having a pH of 7.4 so as to prepare solutions, respectively. Next, a 96 wellmicroplate was provided, where any of the solutions of 1a to 1d (25 μM, 170 μL) was poured into each of the wells, and furthermore, 30 μL of a blank solution or 30 μL of the solution of the reagent to be reacted therewith was added thereto. Final concentrations of the solutions in the wells were adjusted so that concentrations of the solutions of 1a to 1d respectively could be 21.3 μM, that of XO could be 13.1 mU/mL, those of HPX, H2O2, ascorbic acid, 1,4-hydroquinone, propylamine, diethylamine, glucose, NADPH and NADH respectively could be 50 μM, that of cytochrome P450 reductase could be 68 mU/mL, that of diaphorase could be 65 mU/mL, and that of esterase could be 0.5 U/mL, respectively. Then, after they reacted in the wells at 37° C. for 10 minutes, fluorescent responses were measured respectively. Fluorescence intensity measurement was conducted by using an ETC-272 Peltier thermostatted single cell holder (trade name) manufactured by JASCO Corporation or a SpectraMax GeminiEM fluorescence plate reader (trade name) manufactured by Molecular Devices Corporation provided with a FP-750 spectrofluorometer (trade name) manufactured by JASCO Corporation, and by setting excitation wavelengths and emission wavelengths so that those of 1a, 1b and 1c respectively could be 485 nm and 515 nm, and those of 1d respectively could be 511 nm and 540 nm.

[2] = Fluorescent response to H2O2 (Table 1); format: biochemical; settings: relative fluorescence intensity, blank = 10; probe 21.3 μM, H2O2 50 μM, 37° C., 10 minutes
Procedure: as §1

[3] = Fluorescent response to ascorbic acid (Table 1); format: biochemical; settings: relative fluorescence intensity, blank = 10; probe 21.3 μM, ascorbic acid 50 μM, 37° C., 10 minutes
Procedure: as §1

[4] = Fluorescent response to 1,4-hydroquinone (Table 1); format: biochemical; settings: relative fluorescence intensity, blank = 10; probe 21.3 μM, 1,4-hydroquinone 50 μM, 37° C., 10 minutes
Procedure: as §1

[5] = Fluorescent response to propylamine (Table 1); format: biochemical; settings: relative fluorescence intensity, blank = 10; probe 21.3 μM, propylamine 50 μM, 37° C., 10 minutes
Procedure: as §1

[6] = Fluorescent response to diethylamine (Table 1); format: biochemical; settings: relative fluorescence intensity, blank = 10; probe 21.3 μM, diethylamine 50 μM, 37° C., 10 minutes
Procedure: as §1

[7] = Fluorescent response to glucose (Table 1); format: biochemical; settings: relative fluorescence intensity, blank = 10; probe 21.3 μM, glucose 50 μM, 37° C., 10 minutes
Procedure: as §1

esterase = assay: Fluorescent response to esterase (Table 1); format: biochemical; settings: relative fluorescence intensity, blank = 10; probe 21.3 μM, esterase 0.5 U/mL, 37° C., 10 minutes
Procedure: as §1

Voltammetry measurement = format: physicochemical; settings: CH3CN—H2O (3:1) containing Et4NClO4
[8] = Capability as superoxide-detecting fluorescent probe (reactivity with superoxide); format: biochemical; settings: tested similarly to the compound 1d
Procedure: Then, by mainly using the compound 1d as a testing compound, the capability thereof as a superoxide-selective fluorescent probe was evaluated, and moreover, a test in a cell system also was conducted. These tests will be described below.
Thus, it is thought that each compound synthesized from a combination of: a phenolic colorant; and a 2,4-dinitrobenzenesulfonyl group, a 4-trifluoromethyl-2-nitrobenzenesulfonyl group or a 4-nitrobenzenesulfonyl group can be used as a superoxide-detecting fluorescent probe similarly. An example of the usage thereof will be shown in Scheme 8 below. Furthermore, it can be expected that a compound for a fluorescent probe having characteristics that are suitable for its application purpose can be designed and developed freely, by designing the compound of the present invention freely within the limitation defined by the general formula (I) and using the fluorescence mechanism developed by the inventors of the present invention, without being limited to the above-described combinations. Examples of the application purpose of the compound of the present invention are varied, including an application to a faintly coloring technique using superoxide.

[9] = Reactivity with superoxide and glutathione (FIG. 4); format: biochemical; settings: for selectivity (specificity), superoxide versus glutathione, FIG. 4: same conditions as 1-3 Superoxide-selectivity (2)
Procedure: as §1
(§2) The reactivity of each of the compounds 1d, 5a, 6a, 7 and 8a with respect to superoxide and glutathione (GSH) that is a kind of thiol was tested under the same conditions as those of [1-3. Superoxide-selectivity (2)] in Example 1. […] A vertical axis thereof denotes a fluorescence intensity, which is represented in % of control.

[10] = Responses to the compounds listed in Table 1; format: biochemical; settings: same conditions as Example 1
Procedure: as §1, §2

[11] = Fluorescence response to thiophosphonate group (FIG. 8); format: biochemical; settings: for response to thiol group in thiophosphonate group: γ-S-ATP and adenosine monothiophosphate (S-AMP); for sensitivity of γ-S-ATP detection relative to 8a: similar tests
From the text: Moreover, a capability of the sulfonate compound of the present invention as a fluorescent probe for mercapto compounds other than thiol (a compound in which a —SH group is bonded to a carbon atom) was examined. […]

neutrophils = tested on: neutrophils
Procedure: Moreover, a toxicity of the compound 1d with respect to the neutrophils was evaluated by estimating cell viability by a trypan blue dyeing method. More specifically, the neutrophils (1.0×10^5 cells) were incubated at 37° C. for 120 minutes in a glass test tube coated with human serum albumin, in the presence of both of the compound 1d (6.25 μM) and PMA (0.16 μM), in the presence of either of them, and in the absence of them, respectively. Then, cell viability after the incubation with respect to cell viability before the incubation was measured.

Q: With `O=C1OC2(c3ccc(OS(=O)(=O)c4ccc([N+](=O)[O-])cc4[N+](=O)[O-])cc3Oc3cc(OS(=O)(=O)c4ccc([N+](=O)[O-])cc4[N+](=O)[O-])ccc32)c2ccccc21` [Compound 1a] as the compound, how does the “fluorescent response, XO—HPX” value [1] read?
A: 70

Q: What about the “fluorescent response, XO—HPX—SOD” value [1] of the same compound?
A: 12

Q: And the “fluorescent response, H2O2” value [2]?
A: 10

Q: And the “fluorescent response, ascorbic acid” value [3]?
A: 10

Q: And the “fluorescent response, 1,4-hydroquinone” value [4]?
A: 10

Q: And the “fluorescent response, propylamine” value [5]?
A: 10

Q: What about the “fluorescent response, diethylamine” value [6] of the same compound?
A: 11

Q: And the “fluorescent response, glucose” value [7]?
A: 10

Q: And the “fluorescent response, esterase” value (esterase)?
A: 17

Q: And the cathode response (Voltammetry measurement)?
A: about −0.5 V vs SCE

Q: What does the source list for `O=C1OC2(c3cc(Cl)c(OS(=O)(=O)c4ccc([N+](=O)[O-])cc4[N+](=O)[O-])cc3Oc3cc(OS(=O)(=O)c4ccc([N+](=O)[O-])cc4[N+](=O)[O-])c(Cl)cc32)c2ccccc21` [Compound 1b]?
A: fluorescent response, XO—HPX [1]: 288; fluorescent response, XO—HPX—SOD [1]: 22; fluorescent response, H2O2 [2]: 11; fluorescent response, ascorbic acid [3]: 11; fluorescent response, 1,4-hydroquinone [4]: 11; fluorescent response, propylamine [5]: 10; fluorescent response, diethylamine [6]: 10; fluorescent response, glucose [7]: 10; fluorescent response, esterase (esterase): 20; cathode response (Voltammetry measurement): about −0.5 V vs SCE

Q: What does the source list for `O=C1OC2(c3cc(F)c(OS(=O)(=O)c4ccc([N+](=O)[O-])cc4[N+](=O)[O-])cc3Oc3cc(OS(=O)(=O)c4ccc([N+](=O)[O-])cc4[N+](=O)[O-])c(F)cc32)c2ccccc21` [Compound 1c]?
A: fluorescent response, XO—HPX [1]: 797; fluorescent response, XO—HPX—SOD [1]: 48; fluorescent response, H2O2 [2]: 11; fluorescent response, ascorbic acid [3]: 11; fluorescent response, 1,4-hydroquinone [4]: 10; fluorescent response, propylamine [5]: 10; fluorescent response, diethylamine [6]: 10; fluorescent response, glucose [7]: 10; fluorescent response, esterase (esterase): 23; cathode response (Voltammetry measurement): about −0.5 V vs SCE

Q: With `O=C1OC2(c3ccccc31)c1cc(F)c(OS(=O)(=O)c3ccc(C(F)(F)F)cc3[N+](=O)[O-])c(F)c1Oc1c2cc(F)c(OS(=O)(=O)c2ccc(C(F)(F)F)cc2[N+](=O)[O-])c1F` [Compound 3] as the compound, how does the “deprotection by superoxide into the corresponding fluorochrome” value (shortened to “deprotection”) [8] read?
A: deprotected by superoxide

Q: Which “deprotection” value [8] does the source give for `O=C(O)c1ccccc1-c1c2cc(F)c(=O)c(F)c-2oc2c(F)c(OS(=O)(=O)c3ccc(C(F)(F)F)cc3[N+](=O)[O-])c(F)cc12` [Compound 4a] here?
A: deprotected by superoxide

Q: For `O=C(O)c1ccccc1-c1c2cc(F)c(=O)c(F)c-2oc2c(F)c(OS(=O)(=O)c3ccc([N+](=O)[O-])cc3)c(F)cc12` [Compound 4b], which “deprotection” value [8] is on record?
A: deprotected by superoxide

Q: What does the source list for `O=c1ccc2nc3ccc(OS(=O)(=O)c4ccc([N+](=O)[O-])cc4[N+](=O)[O-])cc3oc-2c1` [Compound 5a]?
A: deprotection by superoxide into the corresponding fluorochrome [8]: deprotected by superoxide; selectivity (specificity), superoxide versus glutathione, FIG. 4 [9]: excellent mercapto compound-selectivity; response with respect to each of the compounds listed in Table 1 [10]: almost no response; response to thiol group in thiophosphonate group [11]: responded to a thiol group in a so-called thiophosphonate group

Q: Which “deprotection” value [8] does the source give for `O=c1ccc2nc3ccc(OS(=O)(=O)c4ccc(C(F)(F)F)cc4[N+](=O)[O-])cc3oc-2c1` [Compound 5b] here?
A: deprotected by superoxide

Q: Which “deprotection” value [8] does the source give for `O=c1cc(C(F)(F)F)c2ccc(OS(=O)(=O)c3ccc(C(F)(F)F)cc3[N+](=O)[O-])cc2o1` [Compound 6b] here?
A: deprotected by superoxide

Q: With `Cc1cc(=O)oc2cc(OS(=O)(=O)c3ccc([N+](=O)[O-])cc3[N+](=O)[O-])ccc12` [Compound 7] as the compound, how does the “selectivity (specificity), superoxide versus glutathione, FIG. 4” value [9] read?
A: excellent mercapto compound-selectivity

Q: And the “response with respect to each of the compounds listed in Table 1” value [10]?
A: almost no response

Q: And the “response to thiol group in thiophosphonate group” value [11]?
A: responded to a thiol group in a so-called thiophosphonate group

Q: Which results are given for `Cc1cc2c(-c3ccccc3C(=O)O)c3cc(C)c(=O)cc-3oc2cc1OS(=O)(=O)c1ccc([N+](=O)[O-])cc1[N+](=O)[O-]` [Compound 8b]?
A: response to glutathione [9]: responded to glutathione with high sensitivity; response with respect to each of the compounds listed in Table 1 [10]: almost no response; sensitivity of γ-S-ATP detection relative to 8a [11]: sensitivity still higher than that of 8a

Q: What does the source list for `Cc1c2oc3c(C)c(OS(=O)(=O)c4ccc([N+](=O)[O-])cc4[N+](=O)[O-])ccc3c(-c3ccccc3C(=O)O)c-2ccc1=O` [Compound 8c]?
A: response to glutathione [9]: responded to glutathione with high sensitivity; response with respect to each of the compounds listed in Table 1 [10]: almost no response; sensitivity of γ-S-ATP detection relative to 8a [11]: sensitivity still higher than that of 8a

Q: Which “toxicity with respect to the neutrophils” value (neutrophils; incubation of 120 minutes) does the source give for `CCCCCCCCCCCCCC(=O)O[C@@H]1[C@@H](C)[C@@]2(O)[C@@H](C=C(CO)C[C@]3(O)C(=O)C(C)=C[C@@H]23)[C@@H]2C(C)(C)[C@]12OC(C)=O` [PMA, phorbol myristate acetate, reference compound] here?
A: did not show any significant toxicity

Q: What about the “cell viability after the incubation with respect to before the incubation” value (neutrophils; substance only (1d 6.25 μM or PMA 0.16 μM), 1.0×10^5 neutrophils, 37° C., 120 minutes) of the same compound?
A: 93%
